Results taken from patent publication US20250345318A1, “COMPOUND AND USE THEREOF IN PREVENTING OR TREATING RADIATION DAMAGE” (SIMCERE PHARMACEUTICAL CO., LTD., priority 2022, published 2025).

Assays:
[1] = test system: SPCA-1 cells transfected with JWA-knockdown plasmids; test: Colony formation of SPCA-1 cells transfected with JWA-knockdown plasmids (Example 22); format: cell-based, human; conditions: JAC4-treated JWA-knockdown SPCA-1 vs JAC4-treated si-Control
Procedure: 1. SPCA-1 and BEAS-2B cells (or SPCA-1 and BEAS-2B cells transfected with JWA-knockdown plasmids) in the exponential growth phase were plated in 6-well plates at a specific amount. The number of plated cells is as follows
2. After the cells adhered to the container wall, the cells were treated (or not treated) with […] JAC4 and treated with X-ray of 0, 2, 4, or 6 Gy. The medium was replaced with a fresh medium containing JAC4 at the corresponding concentration once every 2 days (or the cells were treated with X-ray of 0, 2, 4, or 6 Gy after adhesion, and the medium was replaced with a fresh medium once every 2 days).
3. After the cells were cultured for 10-14 days, colonies were visually observed. The culture medium was discarded, and the cells were fixed with methanol for 10-20 min, stained with crystal violet for 10 min, slowly washed with flowing clear water thrice, photographed, and counted for colonies containing>50 cells.
4. The colony forming efficiency (CFE)=(number of colonies formed/number of seeded cells) 100% was calculated, and the cell survival fraction (SF)=(colony forming efficiency of treatment group/colony forming efficiency of 0 Gy group)×100% was calculated from the colony forming efficiency. […]

[2] = test system: SPCA-1 cells; test: Subcutaneous SPCA-1 lung cancer xenograft model with X-ray radiation therapy (Example 20); format: in vivo; conditions: for tumor inhibition rate: day 13, vs control group
Procedure: SPCA-1 cells in the logarithmic growth phase were subcutaneously injected into male BALB/C nude mice aged 4-5 weeks at 5×10^6 cells/100 μL […]. When the tumor volume reached 60-100 mm^3 (tumor volume=length×width^2/2), the mice were randomized into a vehicle control group, a 100 mg/kg JAC4 group (daily treatment), a 3 Gy×5 X-ray radiation group (5 consecutive days of radiation), and a 100 mg/kg JAC4+3 Gy×5 X-ray radiation group, each containing 6 mice. The formulation of the vehicle for JAC4 was polyethylene glycol:ethanol:physiological saline=40:7.5:52.5, v/v/v. The vehicle group and the treatment groups were given the vehicle or the treatment at the same volume by the same route, respectively. The mice were kept anesthetized by isoflurane through a mask in a supine posture. The irradiation range was adjusted to the tumor and the whole lung with a width of about 2 cm through the width indicating lamp and the beam limiting device of the system. The chamber was closed, and the irradiation time was set to about 126 s according to the dose rate to enable the total dose to reach 3 Gy. The irradiator was turned on for the irradiation. 100 mg/kg JAC4 was administered intragastrically daily. The body weight and tumor volume were measured daily and the modeling was terminated on day 13 post-dose.
After the modeling was finished, the tumor tissue was subjected to HE staining according to the following specific procedures: 3 mice were randomly selected to provide the tumor tissue for HE staining in each group, and 6 fields of view were randomly selected for inspection.

[3] = test system: C57BL/6 male mice; test: Body weight after abdominal X-ray irradiation 12 Gy (Example 9); format: in vivo; conditions: JAC4 100 mg/kg oral + abdominal X-ray 12 Gy
Procedure: CS7BL/6 male mice aged 10 weeks were divided into 3 groups, i.e., a vehicle control group, a vehicle+radiation group, and a JAC4+radiation group 8 days after radiation, with 6 mice in each group. JAC4 (100 mg/kg) or an equal volume of vehicle (polyethylene glycol:ethanol:physiological saline=47.5:7.5:50, v/v/v) was orally administered to the mice once daily for 7 days. After that, the mice were subjected to abdominal X-ray irradiation (12 Gy) and the JAC4 or vehicle treatment was continued for 4 days. The body weights of the mice before and after […] X-ray irradiation were recorded daily, and body weight curves were plotted.

[4] = test system: C57BL/6 male mice; test: Dose-response of protection against total body X-ray irradiation: body weight, small intestine villus length (Example 5); format: in vivo
Procedure: C57BL/6 male mice (24.8±1.6 g in body weight) aged 10 weeks were divided into 6 groups: a vehicle control group, a JAC4 (200 mg/kg) treatment group, a vehicle control+radiation group, and JAC4 intervention (50 mg/kg, 100 mg/kg, and 200 mg/kg)+radiation groups, with 12 mice in each group. JAC4 or an equal volume of vehicle (polyethylene glycol:ethanol:physiological saline=47.5:7.5:50, v/v/v) was orally administered to the mice once daily for 7 consecutive days. After that, the mice in the radiation groups were subjected to total body X-ray irradiation (6 Gy). The JAC4 or vehicle treatment was continued for 3 days.
The body weights of the mice before and after the total body X-ray irradiation were measured, and the body weight curves are shown in FIG. 8.
HE staining was performed on the small intestine tissues of mice subjected to total body X-ray irradiation. The length of the small intestine villi in all groups was measured and the results were statistically analyzed. The specific procedures are as follows: 3 mice were randomly selected from each group for statistical analysis of their small intestine tissue HE staining images, and for each mouse, 6 fields of view were randomly selected for inspection (** p<0.01, *** p<0.001).

[5] = test system: SPCA-1 cells; test: γ-H2AX foci and Western blot (DSBs), SPCA-1 (Example 22); format: cell-based, human
Procedure: To investigate the effect of JAC4 in combination with X-ray on DSBs in SPCA-1 and BEAS-2B cells, SPCA-1 and BEAS-2B cells were pretreated with 10 μM JAC4 for 24 h and 4 Gy X-ray for 2 h, and then subjected to γ-H2AX fluorescent labeling and Western immunoblot (see Example 4 for detailed procedures).

[6] = SPCA-1, 10 μM JAC4 + 4 Gy X-ray vs X-ray monotherapy

Structure (SMILES): c1ccc(CSc2nnc(C3COc4ccccc4O3)o2)nc1 (stereo not drawn) [JAC4]
- cell survival rate (radiosensitization curve) [1]: significantly increased
- number of colonies formed [1]: significantly higher
- tumor inhibition rate ([2]; 100 mg/kg JAC4 + 3 Gy×5 X-ray combination therapy): 78.05%
- tumor inhibition rate ([2]; 100 mg/kg JAC4 intragastric daily, monotherapy): 25.45%
- tumor volume ([2]; 100 mg/kg JAC4 monotherapy): significantly smaller than the control group
- tumor-to-body weight ratio ([2]; JAC4 + X-ray combination vs X-ray monotherapy group): significantly reduced
- H&E staining of tumor tissues ([2]; JAC4 in combination with X-ray): promotes the necrosis of tumor tissues
- death ([2]; all groups, JAC4 100 mg/kg with or without X-ray): no death occurred
- body weight ([2]; among all groups, JAC4 100 mg/kg with or without X-ray): no significant changes
- body weight curve [3]: consistently above that of the vehicle+radiation group
- body weight loss after radiation ([4]; JAC4 50, 100, 200 mg/kg oral + TBI 6 Gy vs vehicle+radiation): slower body weight loss
- small intestine villus length ([4]; day 3 after TBI 6 Gy, JAC4 50 mg/kg oral): 249.42±27.19 μm
- small intestine villus length ([4]; day 3 after TBI 6 Gy, JAC4 100 mg/kg oral): 244.78±40.74 μm
- small intestine villus length ([4]; day 3 after TBI 6 Gy, JAC4 200 mg/kg oral): 212.43±27.99 μm
- small intestine villus length ([4]; day 7 after TBI 6 Gy, JAC4 50 mg/kg oral): 235.57±24.34 μm
- small intestine villus length ([4]; day 7 after TBI 6 Gy, JAC4 100 mg/kg oral): 254.95±28.91 μm
- small intestine villus length ([4]; day 7 after TBI 6 Gy, JAC4 200 mg/kg oral): 259.17±17.56 μm
- small intestine villus length ([4]; non-radiation, JAC4 200 mg/kg oral): 306.78±14.64 μm
- γ-H2AX foci ([5]; SPCA-1, 10 μM JAC4 24 h + 4 Gy X-ray 2 h vs X-ray monotherapy): increase
- JWA expression level (Western blot) [5, 6]: increased
- γ-H2AX expression level (Western blot) [5, 6]: increased
